In patent US20250382344A1, “Soluble GLP1/GIP/NPY2 Receptor Triple Agonists” (Boehringer Ingelheim International GmH, priority 2024, published 2025):
Where two headings read alike, the source gives them in different places.

Tests used:
[1] = target: T1, hGLP1R (Homo sapiens, UniProt P43220); test: hGLP1R CreLuc assay in 0.5% and 100% plasma (HEK-293 CRE-luciferase reporter cells); assay type: cell-based; conditions: 0.5% human plasma, HEK-293 reporter cells
T1 construct: expressed in transfected cells; host or cells: HEK-293 CRE-luciferase reporter cells
From the text: CHO and HEK-293 recombinant cell lines express a luciferase reporter gene under control of the CAMP responsive element (CRE). As a second recombinant protein the GLP-1 and NPY2 receptors were expressed in the reporter gene HEK cells, and the GIP receptor was expressed in the reporter gene CHO cells, respectively. Stimulation of these recombinant cells with an agonist leads to an increase of intracellular CAMP levels. In the presence of CAMP, the transcription factor CRE binding protein (CREB) binds to the CRE and to the CREB binding protein (CBP), which leads to transcription of the luciferase reporter gene. Peptides upon serial-dilution in 100% DMSO were transferred into 384-well assay plates with 5 μl pre-dispensed assay buffer (1×HBSS, 20 mM HEPES, pH7.4 supplemented with 0.5% human plasma) using acoustic dispensing on a Labcyte ECHO. Cryo-preserved transgenic reporter gene cells were thawed in assay buffer. 20 μl (10.000 cells/well) were added to the plate with the peptides and incubated for 4 hours at 37° C. in a humidified incubator. Following incubation, assay plates are equilibrated to room temperature, followed by addition of 25 μl of Bright-Glo™ Luciferase reagent, incubation at room temperature for 10 minutes and analysis of luminescence (Envision Reader). […] EC50 values were calculated by non-linear regression using sigmoid concentration-response with variable slope.
The same assays were run in the presence of 100% plasma with no additional buffer constituents.

[2] = target: T2, hGIPR (Homo sapiens, UniProt P48546); test: hGIPR CreLuc assay in 0.5% and 100% plasma (CHO CRE-luciferase reporter cells); assay type: cell-based; conditions: 0.5% human plasma, read-out: hGIPR 0.5% hP
T2 construct: expressed in transfected cells; host or cells: CHO CRE-luciferase reporter cells
T2 sequence (P48546 22-466): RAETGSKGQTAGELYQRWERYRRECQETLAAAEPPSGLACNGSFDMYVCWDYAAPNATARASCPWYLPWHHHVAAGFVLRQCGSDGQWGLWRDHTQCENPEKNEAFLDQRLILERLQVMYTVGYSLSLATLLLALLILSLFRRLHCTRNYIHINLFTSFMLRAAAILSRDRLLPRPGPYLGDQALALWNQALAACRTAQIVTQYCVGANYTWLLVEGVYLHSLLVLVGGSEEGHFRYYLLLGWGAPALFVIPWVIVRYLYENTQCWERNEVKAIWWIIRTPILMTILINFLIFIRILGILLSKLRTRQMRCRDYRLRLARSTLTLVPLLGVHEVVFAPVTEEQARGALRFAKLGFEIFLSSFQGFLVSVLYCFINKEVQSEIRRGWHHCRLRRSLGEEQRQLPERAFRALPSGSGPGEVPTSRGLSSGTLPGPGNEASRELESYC

[3] = Solubility in 0.1 M phosphate buffer at pH 7; assay type: physicochemical; conditions: 0.1 M phosphate buffer at pH 7, 10 mg/mL final peptide concentration, shaking 2 hours at room temperature, peptides as TFA-salts; measured sample pH 6.5-7.0

T1 sequence (P43220 24-463): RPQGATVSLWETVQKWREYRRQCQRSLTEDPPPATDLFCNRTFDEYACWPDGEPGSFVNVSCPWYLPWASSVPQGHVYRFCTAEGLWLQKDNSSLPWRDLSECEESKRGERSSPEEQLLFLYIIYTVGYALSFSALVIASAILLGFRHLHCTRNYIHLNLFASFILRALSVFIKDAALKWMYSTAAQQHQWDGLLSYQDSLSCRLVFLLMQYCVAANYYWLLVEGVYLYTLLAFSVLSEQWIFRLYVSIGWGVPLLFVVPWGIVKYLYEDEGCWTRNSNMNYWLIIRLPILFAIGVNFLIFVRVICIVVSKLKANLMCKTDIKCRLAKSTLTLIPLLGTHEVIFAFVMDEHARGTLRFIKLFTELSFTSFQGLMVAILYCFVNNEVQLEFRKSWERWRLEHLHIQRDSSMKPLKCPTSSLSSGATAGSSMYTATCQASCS

SMILES | EC50 ([1]; read-out: hGLP1R 0.5% hP) | EC50 [2] | solubility at 2 h [3] | EC50 ([1]; hGLP1R 0.5% hP (nM))
CC[C@H](C)[C@H](NC(=O)[C@H](CC(C)C)NC(=O)[C@H](Cc1c[nH]cn1)NC(=O)[C@H](CCCNC(=N)N)NC(=O)[C@@H](NC(=O)[C@H](Cc1ccccc1)NC(=O)[C@H](C)NC(=O)C(C)(C)NC(=O)[C@H](CCC(N)=O)NC(=O)[C@H](C)NC(=O)[C@H](CCC(N)=O)NC(=O)[C@H](CCCCN)NC(=O)[C@H](CCC(=O)O)NC(=O)[C@H](CC(C)C)NC(=O)C(C)(C)NC(=O)[C@@H](NC(=O)[C@H](CO)NC(=O)[C@H](Cc1ccc(O)cc1)NC(=O)[C@H](CC(=O)O)NC(=O)[C@H](CO)NC(=O)[C@@H](NC(=O)[C@H](Cc1ccccc1)NC(=O)[C@H](CCC(=O)O)NC(=O)CNC(=O)[C@H](CCC(=O)O)NC(=O)C(C)(C)NC(=O)[C@@H](N)Cc1ccc(O)cc1)[C@@H](C)O)[C@@H](C)CC)C(C)C)C(=O)N[C@@H](CC(N)=O)C(=O)N[C@@H](CCCCNC(=O)[C@@H](N)CCCCNC(=O)CC[C@H](NC(=O)CC[C@H](NC(=O)CC[C@H](NC(=O)CC[C@H](NC(=O)CC[C@H](NC(=O)CC[C@H](NC(=O)CCCCCCCCCCCCCCCCC(=O)O)C(=O)O)C(=O)O)C(=O)O)C(=O)O)C(=O)O)C(=O)O)C(=O)NC(C)(C)C(=O)N[C@H](C(=O)N[C@@H](CCCNC(=N)N)C(=O)N[C@@H](CCC(N)=O)C(=O)N[C@@H](CCCNC(=N)N)C(=O)N[C@@H](Cc1ccc(O)cc1)C(N)=O)[C@@H](C)O [Compound 54, Y-Aib-E-G-E-F-T-S-D-Y-S-I-Aib-L-E-K-Q-A-Q-Aib-A-F-V-R-H-L-I-N-K(1,3)-Aib-T-R-Q-R-Y-NH2.C18DA-gGlu-gGlu-gGlu-gGlu-gGlu-gGlu-eLys(1,2)] | 3.4 nM |  | 9600 µg/mL | 
CC[C@H](C)[C@H](NC(=O)[C@H](CO)NC(=O)[C@H](CC(C)C)NC(=O)[C@H](CC(=O)O)NC(=O)[C@H](CO)NC(=O)[C@@H](NC(=O)[C@H](Cc1ccccc1)NC(=O)[C@@H](NC(=O)CNC(=O)[C@H](CCC(=O)O)NC(=O)C(C)(C)NC(=O)[C@@H](N)Cc1ccc(O)cc1)[C@@H](C)O)[C@@H](C)O)C(=O)NC(C)(C)C(=O)N[C@@H](CC(C)C)C(=O)N[C@@H](CCC(=O)O)C(=O)N[C@@H](CCCCN)C(=O)N[C@@H](CCC(N)=O)C(=O)N[C@@H](C)C(=O)N[C@@H](CCC(N)=O)C(=O)NC(C)(C)C(=O)N[C@@H](C)C(=O)N[C@@H](Cc1ccccc1)C(=O)N[C@H](C(=O)N[C@@H](CCCNC(=N)N)C(=O)N[C@@H](Cc1c[nH]cn1)C(=O)N[C@@H](CC(C)C)C(=O)N[C@@H](CC(C)C)C(=O)N[C@@H](CC(N)=O)C(=O)N[C@@H](CCCCNC(=O)[C@@H](N)CCCCNC(=O)CC[C@H](NC(=O)CC[C@H](NC(=O)CC[C@H](NC(=O)CC[C@H](NC(=O)CC[C@H](NC(=O)CC[C@H](NC(=O)CCCCCCCCCCCCCCCCCCC(=O)O)C(=O)O)C(=O)O)C(=O)O)C(=O)O)C(=O)O)C(=O)O)C(=O)NC(C)(C)C(=O)N[C@H](C(=O)N[C@@H](CCCNC(=N)N)C(=O)N[C@@H](CCC(N)=O)C(=O)N[C@@H](CCCNC(=N)N)C(=O)N[C@@H](Cc1ccc(O)cc1)C(N)=O)[C@@H](C)O)C(C)C [Compound 115, Y-Aib-E-G-T-F-T-S-D-L-S-I-Aib-L-E-K-Q-A-Q-Aib-A-F-V-R-H-L-L-N-K(1,3)-Aib-T-R-Q-R-Y-NH2.C20DA-gGlu-gGlu-gGlu-gGlu-gGlu-gGlu-eLys(1,2)] |  |  | 8200 µg/mL | 7 nM

More lines, in order of falling EC50 ([1]; read-out: hGLP1R 0.5% hP), values ahead:

EC50 ([1]; read-out: hGLP1R 0.5% hP) | EC50 [2] | solubility at 2 h [3] | SMILES | EC50 ([1]; hGLP1R 0.5% hP (nM))
0.8 nM | 0.4 nM | 5000 µg/mL | CC[C@H](C)[C@H](NC(=O)[C@H](CC(C)C)NC(=O)[C@H](Cc1c[nH]cn1)NC(=O)[C@H](CCCNC(=N)N)NC(=O)[C@@H](NC(=O)[C@H](Cc1ccccc1)NC(=O)[C@H](C)NC(=O)C(C)(C)NC(=O)[C@H](CCC(N)=O)NC(=O)[C@H](C)NC(=O)[C@H](CCC(N)=O)NC(=O)[C@H](CCCCN)NC(=O)[C@H](CCC(=O)O)NC(=O)[C@H](CC(C)C)NC(=O)C(C)(C)NC(=O)[C@@H](NC(=O)[C@H](CO)NC(=O)[C@H](Cc1ccc(O)cc1)NC(=O)[C@H](CC(=O)O)NC(=O)[C@H](CO)NC(=O)[C@@H](NC(=O)[C@H](Cc1ccccc1)NC(=O)[C@@H](NC(=O)CNC(=O)[C@H](CCC(=O)O)NC(=O)C(C)(C)NC(=O)[C@@H](N)Cc1ccc(O)cc1)[C@@H](C)O)[C@@H](C)O)[C@@H](C)CC)C(C)C)C(=O)N[C@@H](CC(N)=O)C(=O)N[C@@H](CCCCNC(=O)CC[C@H](NC(=O)CC[C@H](NC(=O)CC[C@H](NC(=O)CC[C@H](NC(=O)CC[C@H](NC(=O)CC[C@H](NC(=O)CCCCCCCCCCCCCCCCC(=O)O)C(=O)O)C(=O)O)C(=O)O)C(=O)O)C(=O)O)C(=O)O)C(=O)NC(C)(C)C(=O)N[C@H](C(=O)N[C@@H](CCCNC(=N)N)C(=O)N(C)[C@@H](CCC(N)=O)C(=O)N[C@@H](CCCNC(=N)N)C(=O)N[C@@H](Cc1ccc(O)cc1)C(N)=O)[C@@H](C)O [Compound 2, Y-Aib-E-G-T-F-T-S-D-Y-S-I-Aib-L-E-K-Q-A-Q-Aib-A-F-V-R-H-L-I-N-K(1,3)-Aib-T-R-NMeQ-R-Y-NH2.C18DA-gGlu-gGlu-gGlu-gGlu-gGlu-gGlu(1,2)] | 
0.7 nM | 0.4 nM | 4500 µg/mL | CC[C@H](C)[C@H](NC(=O)[C@H](CC(C)C)NC(=O)[C@H](Cc1c[nH]cn1)NC(=O)[C@H](CCCNC(=N)N)NC(=O)[C@@H](NC(=O)[C@H](Cc1ccccc1)NC(=O)[C@H](C)NC(=O)C(C)(C)NC(=O)[C@H](CCC(N)=O)NC(=O)[C@H](C)NC(=O)[C@H](CCC(N)=O)NC(=O)[C@H](CCCCN)NC(=O)[C@H](CCC(=O)O)NC(=O)[C@H](CC(C)C)NC(=O)C(C)(C)NC(=O)[C@@H](NC(=O)[C@H](CO)NC(=O)[C@H](Cc1ccc(O)cc1)NC(=O)[C@H](CC(=O)O)NC(=O)[C@H](CO)NC(=O)[C@@H](NC(=O)[C@H](Cc1ccccc1)NC(=O)[C@@H](NC(=O)CNC(=O)[C@H](CCC(=O)O)NC(=O)C(C)(C)NC(=O)[C@@H](N)Cc1ccc(O)cc1)[C@@H](C)O)[C@@H](C)O)[C@@H](C)CC)C(C)C)C(=O)N[C@@H](CC(N)=O)C(=O)N[C@@H](CCCCNC(=O)COCCOCCNC(=O)CC[C@H](NC(=O)CC[C@H](NC(=O)CC[C@H](NC(=O)CC[C@H](NC(=O)CC[C@H](NC(=O)CCCCCCCCCCCCCCCCC(=O)O)C(=O)O)C(=O)O)C(=O)O)C(=O)O)C(=O)O)C(=O)N[C@@H](CC(C)C)C(=O)N[C@H](C(=O)N[C@@H](CCCNC(=N)N)C(=O)N[C@@H](CCC(N)=O)C(=O)N[C@@H](CCCNC(=N)N)C(=O)N[C@@H](Cc1ccc(O)cc1)C(N)=O)[C@@H](C)O [Compound 7, Y-Aib-E-G-T-F-T-S-D-Y-S-I-Aib-L-E-K-Q-A-Q-Aib-A-F-V-R-H-L-I-N-K(1,3)-L-T-R-Q-R-Y-NH2.C18DA-gGlu-gGlu-gGlu-gGlu-gGlu-OEG(1,2)] | 
0.2 nM | 0.7 nM |  | CC[C@H](C)[C@H](NC(=O)[C@H](CO)NC(=O)[C@H](Cc1ccc(O)cc1)NC(=O)[C@H](CC(=O)O)NC(=O)[C@H](CO)NC(=O)[C@@H](NC(=O)[C@H](Cc1ccccc1)NC(=O)[C@@H](NC(=O)CNC(=O)[C@H](CCC(=O)O)NC(=O)C(C)(C)NC(=O)[C@@H](N)Cc1ccc(O)cc1)[C@@H](C)O)[C@@H](C)O)C(=O)NC(C)(C)C(=O)N[C@@H](CC(C)C)C(=O)N[C@@H](CC(=O)O)C(=O)N[C@@H](CCCCN)C(=O)N[C@@H](CCC(N)=O)C(=O)N[C@@H](C)C(=O)N[C@@H](CCC(N)=O)C(=O)NC(C)(C)C(=O)N[C@@H](C)C(=O)N[C@@H](Cc1ccccc1)C(=O)N[C@H](C(=O)N[C@@H](CCCNC(=N)N)C(=O)N[C@@H](Cc1c[nH]cn1)C(=O)N[C@@H](CC(C)C)C(=O)N[C@@H](CC(C)C)C(=O)N[C@@H](CC(N)=O)C(=O)N[C@@H](CCCCNC(=O)[C@@H](N)CCCCNC(=O)CC[C@H](NC(=O)CC[C@H](NC(=O)CC[C@H](NC(=O)CC[C@H](NC(=O)CC[C@H](NC(=O)CC[C@H](NC(=O)CCCCCCCCCCCCCCCCC(=O)O)C(=O)O)C(=O)O)C(=O)O)C(=O)O)C(=O)O)C(=O)O)C(=O)NC(C)(C)C(=O)N[C@H](C(=O)N[C@@H](CCCNC(=N)N)C(=O)N[C@@H](CCC(N)=O)C(=O)N[C@@H](CCCNC(=N)N)C(=O)N[C@@H](Cc1ccc(O)cc1)C(N)=O)[C@@H](C)O)C(C)C [Compound 173, Y-Aib-E-G-T-F-T-S-D-Y-S-I-Aib-L-D-K-Q-A-Q-Aib-A-F-V-R-H-L-L-N-K(1,3)-Aib-T-R-Q-R-Y-NH2.C18DA-gGlu-gGlu-gGlu-gGlu-gGlu-gGlu-eLys(1,2)] | 
